# In ChEMBL document CHEMBL4765432, “Design and synthesis of novel Flavone-based histone deacetylase inhibitors antagonizing activation of STAT3 in breast cancer” (Eur J Med Chem, 2020):
# Calls of active or inactive are those of the source. The calls are words filed in the database; no cut-off is given here.
# What was measured:
# [1] = biological target: Histone deacetylase 7 (Homo sapiens) (UniProt Q8WUI4); test: Inhibition of recombinant human N-terminal GST-tagged HDAC-7 (501 to end residues) expressed in baculovirus infected in Sf9 cells at 10 uM using Boc-Lys (q-Ac)-AMC as substrate incubated for 10 mins followed by substrate addition and measured after 30 mins by fluorescence based assay relative to control; conditions: time 40.0 min
# 4T1 [2] = test: Induction of cell cycle arrest in mouse 4T1 cells assessed as G2/M phase accumulation at 1 uM incubated for 24 hrs by PI staining based flow cytometry analysis (reference value: 38.51 %); assay type: functional
# 4T1 [3] = test: Induction of cell cycle arrest in mouse 4T1 cells assessed as G0/G1 phase accumulation at 1 uM incubated for 24 hrs by PI staining based flow cytometry analysis (reference value: 42.06 %); assay type: functional
# 4T1 [4] = test: Induction of cell cycle arrest in mouse 4T1 cells assessed as G0/G1 phase accumulation at 2 uM incubated for 24 hrs by PI staining based flow cytometry analysis (reference value: 42.06 %); assay type: functional
# 4T1 [5] = test: Induction of apoptosis in mouse 4T1 cells assessed as viable cells at 1 uM incubated for 72 hrs by annexinV-FITC and PI staining based flow cytometry analysis (reference value: 91.1 %); assay type: functional; conditions: read-out: Activity
# 4T1 [6] = test: Antitumor activity against mouse 4T1 cells xenografted in BALB/c mouse assessed as tumor growth inhibition at 50 mg/kg, po administered for 22 days and measured on day 22; assay type: functional, organism-based; conditions: time 22.0 day
# [7] = biological target: Voltage-gated inwardly rectifying potassium channel KCNH2 (Homo sapiens, UniProt Q12809); test: Inhibition of human ERG
# MDA-MB-231 [8] = test: Induction of cell cycle arrest in human MDA-MB-231 cells assessed as G0/G1 phase accumulation at 1 uM incubated for 24 hrs by PI staining based flow cytometry analysis (reference value: 29.10 %); assay type: functional
# [9] = Genotoxicity in Salmonella typhimurium TA97a by Ames test; assay type: toxicity; conditions: salmonella enterica subsp. enterica serovar typhimurium
# PC-3 = test: Cytotoxicity against human PC-3 cells assessed as reduction in cell viability incubated for 48 hrs by MTT assay; assay type: functional, cell-based; conditions: PC-3, 48 h
# [10] = Toxicity in C57BL/6 mouse assessed death of organism at 300 mg/kg, ip observed for 24 hrs; assay type: organism-based; conditions: in vivo
# 4T1 [11] = test: Induction of apoptosis in mouse 4T1 cells implanted in BALB/c mouse assessed as increase in caspase-3 cleavage by immunohistochemistry method; assay type: functional, cell-based
# MDA-MB-231 [12] = test: Induction of apoptosis in human MDA-MB-231 cells assessed as increase in PARP cleavage incubated for 48 hrs by Western blot analysis; assay type: functional, cell-based; conditions: dose 0.5-10 µM
# MCF7 = test: Potency index, ratio of IC50 of SAHA to IC50 of compound for cytotoxicity against human MCF7 cells assessed as reduction in cell viability incubated for 48 hrs by MTT assay; assay type: functional
# MDA-MB-231 [13] = test: Induction of cell cycle arrest in human MDA-MB-231 cells assessed as G0/G1 phase accumulation at 2 uM incubated for 24 hrs by PI staining based flow cytometry analysis (reference value: 29.10 %); assay type: functional
# MDA-MB-231 [14] = test: Induction of cell cycle arrest in human MDA-MB-231 cells assessed as G2/M phase accumulation at 2 uM incubated for 24 hrs PI staining based by flow cytometry analysis (reference value: 27.08 %); assay type: functional
# Bcap37 = test: Cytotoxicity against human Bcap37 cells assessed as reduction in cell viability incubated for 48 hrs by MTT assay; assay type: functional, cell-based; conditions: Bcap37, 48 h
# 4T1 [15] = test: Induction of apoptosis in mouse 4T1 cells assessed as necrotic cells at 2.5 uM incubated for 72 hrs by annexinV-FITC and PI staining based flow cytometry analysis (reference value: 5.00 %); assay type: functional
# MDA-MB-231 [16] = test: Induction of apoptosis in human MDA-MB-231 cells assessed as effect on Bax expression at 0.5 to 10 uM incubated for 48 hrs by Western blot analysis; assay type: functional, cell-based; conditions: dose 0.5-10 µM
# Histone deacetylase 5 = Histone deacetylase 5 (Homo sapiens, UniProt Q9UQL6); test: Inhibition of recombinant human N-terminal GST-tagged HDAC-5 (617 to end residues) expressed in baculovirus infected in Sf9 cells using Boc-Lys (q-Ac)-AMC as substrate incubated for 10 mins followed by substrate addition and measured after 30 mins by fluorescence based assay
# MDA-MB-231 [17] = test: Induction of cell cycle arrest in human MDA-MB-231 cells assessed as increase in p21 expression at 0.25 to 5 uM incubated for 24 hrs by Western blot analysis; assay type: functional, cell-based; conditions: dose 0.25-5 µM
# MDA-MB-231 [18] = test: Induction of apoptosis in human MDA-MB-231 cells assessed as effect on p53 expression at 0.5 to 10 uM incubated for 48 hrs by Western blot analysis; assay type: functional, cell-based; conditions: dose 0.5-10 µM
# MDA-MB-231 [19] = test: Induction of cell cycle arrest in human MDA-MB-231 cells assessed as increase in G0/G1 phase accumulation incubated for 24 hrs by flow cytometry analysis; assay type: functional, cell-based; conditions: dose 1-2 µM
# 4T1 [20] = test: Induction of cell cycle arrest in mouse 4T1 cells assessed as G2/M phase accumulation at 2 uM incubated for 24 hrs by PI staining based flow cytometry analysis (reference value: 38.51 %); assay type: functional
# MDA-MB-231 [21] = test: Potency index, ratio of IC50 of SAHA to IC50 of compound for cytotoxicity against human MDA-MB-231 cells assessed as reduction in cell viability incubated for 48 hrs by MTT assay; assay type: functional
# Histone deacetylase 1 = Histone deacetylase 1 (Homo sapiens, UniProt Q13547); test: Inhibition of recombinant human C-terminal GST-tagged full length HDAC-1 expressed in baculovirus infected in Sf9 cells using Boc-Lys (q-Ac)-AMC as substrate incubated for 10 mins followed by substrate addition and measured after 30 mins by fluorescence based assay
# [22] = Half life in Sprague-Dawley rat at 20 mg/kg, iv measured upto 12 hrs by LC-MS/MS analysis; assay type: ADME, organism-based; conditions: in vivo
# T47D = test: Cytotoxicity against human T47D cells assessed as reduction in cell viability incubated for 48 hrs by MTT assay; assay type: functional, cell-based
# MDA-MB-231 [23] = test: Antitumor activity against human MDA-MB-231 cells xenografted in BALB/c mouse assessed as tumor growth inhibition at 25 mg/kg, ip administered for 34 days and measured on day 34; assay type: functional, organism-based; conditions: time 34.0 day
# [24] = biological target: Protein deacetylase HDAC6 (Homo sapiens, UniProt Q9UBN7); test: Inhibition of recombinant human N-terminal GST-tagged full length HDAC-6 expressed in baculovirus infected in Sf9 cells using Boc-Lys (q-Ac)-AMC as substrate incubated for 10 mins followed by substrate addition and measured after 30 mins by fluorescence based assay
# 4T1 [25] = test: Induction of apoptosis in mouse 4T1 cells assessed as necrotic cells at 5 uM incubated for 72 hrs by annexinV-FITC and PI staining based flow cytometry analysis (reference value: 5.00 %); assay type: functional
# 4T1 [26] = test: Induction of apoptosis in mouse 4T1 cells assessed as late apoptotic cells at 5 uM incubated for 72 hrs by annexinV-FITC and PI staining based flow cytometry analysis (reference value: 2.24 %); assay type: functional
# Histone deacetylase 3 = Histone deacetylase 3 (Homo sapiens, UniProt O15379); test: Inhibition of recombinant human C-terminal GST-tagged full length HDAC-3 expressed in baculovirus infected in Sf9 cells using Boc-Lys (q-Ac)-AMC as substrate incubated for 10 mins followed by substrate addition and measured after 30 mins by fluorescence based assay
# Chain of Histone deacetylase 3 (O15379 whole entry): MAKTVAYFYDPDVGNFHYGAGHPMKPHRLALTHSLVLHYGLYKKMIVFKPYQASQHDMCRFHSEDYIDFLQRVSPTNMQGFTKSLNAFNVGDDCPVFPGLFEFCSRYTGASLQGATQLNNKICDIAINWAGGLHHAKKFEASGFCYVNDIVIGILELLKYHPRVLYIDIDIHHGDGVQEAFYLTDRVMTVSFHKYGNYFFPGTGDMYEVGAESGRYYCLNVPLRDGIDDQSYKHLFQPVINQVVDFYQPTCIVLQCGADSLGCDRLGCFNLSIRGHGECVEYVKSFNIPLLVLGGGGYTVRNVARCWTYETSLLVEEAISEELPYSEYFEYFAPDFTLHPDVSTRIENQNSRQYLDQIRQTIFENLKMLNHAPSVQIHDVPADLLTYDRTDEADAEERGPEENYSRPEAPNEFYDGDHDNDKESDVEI
# Chain of Histone deacetylase 5 (Q9UQL6 whole entry): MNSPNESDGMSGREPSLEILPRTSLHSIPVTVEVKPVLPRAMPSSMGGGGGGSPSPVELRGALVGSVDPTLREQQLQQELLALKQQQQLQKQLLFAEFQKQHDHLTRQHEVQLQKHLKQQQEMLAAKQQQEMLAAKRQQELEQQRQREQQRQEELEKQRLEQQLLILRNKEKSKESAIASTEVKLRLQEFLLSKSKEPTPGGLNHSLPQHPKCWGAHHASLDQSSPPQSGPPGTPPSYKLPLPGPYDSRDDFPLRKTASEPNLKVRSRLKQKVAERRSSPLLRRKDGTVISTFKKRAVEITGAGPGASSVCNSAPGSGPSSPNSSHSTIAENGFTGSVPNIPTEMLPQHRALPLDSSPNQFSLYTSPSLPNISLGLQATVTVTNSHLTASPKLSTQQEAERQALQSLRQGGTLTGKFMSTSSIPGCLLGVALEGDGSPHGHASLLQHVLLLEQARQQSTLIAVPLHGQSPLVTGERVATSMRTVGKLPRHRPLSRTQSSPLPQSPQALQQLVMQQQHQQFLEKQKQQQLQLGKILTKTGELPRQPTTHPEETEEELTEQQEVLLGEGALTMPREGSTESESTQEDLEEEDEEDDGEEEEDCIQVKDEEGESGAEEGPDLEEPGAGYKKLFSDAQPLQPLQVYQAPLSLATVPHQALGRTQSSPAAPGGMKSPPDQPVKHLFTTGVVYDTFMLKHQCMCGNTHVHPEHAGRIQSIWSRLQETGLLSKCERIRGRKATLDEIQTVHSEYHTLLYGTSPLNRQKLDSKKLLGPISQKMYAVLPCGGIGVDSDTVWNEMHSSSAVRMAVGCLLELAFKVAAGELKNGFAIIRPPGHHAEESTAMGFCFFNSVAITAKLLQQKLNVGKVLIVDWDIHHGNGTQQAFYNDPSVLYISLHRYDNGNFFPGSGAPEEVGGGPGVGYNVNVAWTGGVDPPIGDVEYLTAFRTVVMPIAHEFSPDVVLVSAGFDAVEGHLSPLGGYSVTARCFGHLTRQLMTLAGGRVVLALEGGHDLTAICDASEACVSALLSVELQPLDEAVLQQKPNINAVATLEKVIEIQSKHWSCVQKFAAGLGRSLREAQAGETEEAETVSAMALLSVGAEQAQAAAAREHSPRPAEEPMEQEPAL
# Chain of Voltage-gated inwardly rectifying potassium channel KCNH2 (Q12809 whole entry): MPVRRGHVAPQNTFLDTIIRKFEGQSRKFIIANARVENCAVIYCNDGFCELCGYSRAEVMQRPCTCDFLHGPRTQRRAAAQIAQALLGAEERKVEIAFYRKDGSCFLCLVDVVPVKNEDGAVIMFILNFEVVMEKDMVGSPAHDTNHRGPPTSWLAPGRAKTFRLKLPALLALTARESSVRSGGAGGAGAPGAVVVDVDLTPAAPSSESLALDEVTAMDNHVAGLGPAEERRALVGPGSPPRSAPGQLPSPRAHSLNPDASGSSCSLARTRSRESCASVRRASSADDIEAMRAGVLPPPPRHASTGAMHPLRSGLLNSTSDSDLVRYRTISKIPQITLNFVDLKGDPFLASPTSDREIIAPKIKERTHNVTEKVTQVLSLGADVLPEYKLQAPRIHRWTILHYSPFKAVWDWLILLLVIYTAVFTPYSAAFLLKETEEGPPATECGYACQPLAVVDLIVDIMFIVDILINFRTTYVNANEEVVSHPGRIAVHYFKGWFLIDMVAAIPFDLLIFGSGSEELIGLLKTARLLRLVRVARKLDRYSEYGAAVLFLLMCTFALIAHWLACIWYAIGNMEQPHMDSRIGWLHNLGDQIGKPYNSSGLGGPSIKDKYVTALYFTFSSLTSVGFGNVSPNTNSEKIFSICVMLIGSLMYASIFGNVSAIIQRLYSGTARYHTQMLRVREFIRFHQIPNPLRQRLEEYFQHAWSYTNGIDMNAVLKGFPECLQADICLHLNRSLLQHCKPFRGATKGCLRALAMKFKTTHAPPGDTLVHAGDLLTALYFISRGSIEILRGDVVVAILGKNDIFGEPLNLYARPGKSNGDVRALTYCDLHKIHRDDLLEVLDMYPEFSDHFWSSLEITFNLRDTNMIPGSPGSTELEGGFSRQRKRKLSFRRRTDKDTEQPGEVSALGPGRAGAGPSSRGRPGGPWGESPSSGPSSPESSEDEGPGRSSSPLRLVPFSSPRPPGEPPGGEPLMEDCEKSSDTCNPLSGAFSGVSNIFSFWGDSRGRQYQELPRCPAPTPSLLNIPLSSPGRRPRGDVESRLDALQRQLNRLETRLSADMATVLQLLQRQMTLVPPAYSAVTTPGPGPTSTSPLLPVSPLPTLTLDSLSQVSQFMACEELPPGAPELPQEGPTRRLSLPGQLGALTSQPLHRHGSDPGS
# Chain of Protein deacetylase HDAC6 (Q9UBN7 whole entry): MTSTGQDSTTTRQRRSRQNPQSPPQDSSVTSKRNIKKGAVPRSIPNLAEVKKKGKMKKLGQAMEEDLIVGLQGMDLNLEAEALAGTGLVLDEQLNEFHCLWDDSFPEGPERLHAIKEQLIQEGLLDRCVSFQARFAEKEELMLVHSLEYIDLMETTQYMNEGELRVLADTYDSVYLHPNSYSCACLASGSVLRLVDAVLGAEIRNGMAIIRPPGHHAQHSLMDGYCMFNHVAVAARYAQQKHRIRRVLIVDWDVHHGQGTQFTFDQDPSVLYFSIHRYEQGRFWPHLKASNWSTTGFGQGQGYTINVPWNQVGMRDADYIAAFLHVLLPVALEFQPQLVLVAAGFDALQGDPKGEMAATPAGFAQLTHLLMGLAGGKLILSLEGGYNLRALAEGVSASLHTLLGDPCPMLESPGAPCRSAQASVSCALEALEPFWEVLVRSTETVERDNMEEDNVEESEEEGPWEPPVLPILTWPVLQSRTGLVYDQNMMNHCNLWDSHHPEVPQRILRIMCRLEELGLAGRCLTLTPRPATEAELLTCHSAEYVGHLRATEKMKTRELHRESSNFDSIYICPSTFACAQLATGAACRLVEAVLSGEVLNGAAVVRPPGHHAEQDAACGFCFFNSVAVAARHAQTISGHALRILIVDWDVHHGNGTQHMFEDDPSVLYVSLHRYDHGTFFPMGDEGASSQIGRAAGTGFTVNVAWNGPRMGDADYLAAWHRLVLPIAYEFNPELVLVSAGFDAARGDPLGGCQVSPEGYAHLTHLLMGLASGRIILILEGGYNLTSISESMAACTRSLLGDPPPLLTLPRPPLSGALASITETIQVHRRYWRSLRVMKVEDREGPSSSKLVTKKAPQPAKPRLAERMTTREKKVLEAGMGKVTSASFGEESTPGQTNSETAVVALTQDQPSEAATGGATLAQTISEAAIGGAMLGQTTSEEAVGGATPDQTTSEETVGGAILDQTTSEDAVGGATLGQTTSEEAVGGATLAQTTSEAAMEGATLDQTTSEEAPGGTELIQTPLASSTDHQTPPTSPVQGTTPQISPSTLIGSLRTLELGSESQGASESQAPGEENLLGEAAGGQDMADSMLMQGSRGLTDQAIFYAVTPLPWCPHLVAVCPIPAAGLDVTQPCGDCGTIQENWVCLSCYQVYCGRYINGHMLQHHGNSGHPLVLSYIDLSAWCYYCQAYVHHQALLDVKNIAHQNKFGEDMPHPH
# Chain of Histone deacetylase 1 (Q13547 whole entry): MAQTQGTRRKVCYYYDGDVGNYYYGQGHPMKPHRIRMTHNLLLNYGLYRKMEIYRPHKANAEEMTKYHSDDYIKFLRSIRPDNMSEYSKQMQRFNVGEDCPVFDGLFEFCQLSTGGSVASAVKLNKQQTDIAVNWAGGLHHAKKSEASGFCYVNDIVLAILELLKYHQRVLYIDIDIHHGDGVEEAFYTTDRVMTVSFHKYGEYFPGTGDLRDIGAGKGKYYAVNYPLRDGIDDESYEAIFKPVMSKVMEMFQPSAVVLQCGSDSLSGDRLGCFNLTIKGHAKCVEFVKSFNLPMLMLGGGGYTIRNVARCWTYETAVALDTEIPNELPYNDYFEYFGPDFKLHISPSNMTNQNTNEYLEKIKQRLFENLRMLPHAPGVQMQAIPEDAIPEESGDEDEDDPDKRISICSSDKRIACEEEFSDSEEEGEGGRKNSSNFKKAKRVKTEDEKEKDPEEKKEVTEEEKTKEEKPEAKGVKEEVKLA
smiles,measurement,setting,value
CN(C)CCOc1ccc(-c2cc(=O)c3c(O)cc(OCCCCCC(=O)NO)cc3o2)cc1.Cl,inhibition,[1],43%
same,Activity,4T1 [2],19.39%
same,Activity,4T1 [3],49.62%
same,Activity,4T1 [4],62.91%
same,viability at 1 µM,4T1 [5],72.3%
same,TGI,4T1 [6],Active
same,IC50,[7],1200 nM
same,Activity,MDA-MB-231 [8],49.09%
same,Activity,[9],Non-Toxic
same,IC50,PC-3,1920 nM
same,Activity,[10],Non-Toxic
same,Activity,4T1 [11],Active
same,Activity,MDA-MB-231 [12],Dose-dependent effect
same,Ratio IC50,MCF7,2
same,Activity,MDA-MB-231 [13],61.9%
same,Activity,MDA-MB-231 [14],27.89%
same,IC50,Bcap37,3280 nM
same,Activity,4T1 [15],1.8%
same,Activity,MDA-MB-231 [16],inactive
same,IC50,Histone deacetylase 5,> 10000 nM
same,Activity,MDA-MB-231 [17],Active
same,Activity,MDA-MB-231 [18],inactive
same,Activity,MDA-MB-231 [19],Dose-dependent effect
same,Activity,4T1 [20],11.51%
same,Ratio IC50,MDA-MB-231 [21],2
same,IC50,Histone deacetylase 1,36 nM
same,half-life,[22],1.42 h
same,IC50,T47D,1530 nM
same,TGI,MDA-MB-231 [23],Active
same,IC50,[24],25.5 nM
same,Activity,4T1 [25],0.852%
same,Activity,4T1 [26],21.9%
same,IC50,Histone deacetylase 3,79.2 nM
